This note sets out measurements from patent US4870098A, “Antagonists of leukotriene D4” (G. D. Searle & Co., priority 1989, dated 1989).

Test [1] has as its target T1, LTD4 receptor (guinea pig lung receptors) (Cavia porcellus, UniProt Q2NNR5).
T1 construct: isolated from guinea pig lung membrane; from tissue; host or cells: guinea pig lung membrane
T1 sequence (Q2NNR5 1-340): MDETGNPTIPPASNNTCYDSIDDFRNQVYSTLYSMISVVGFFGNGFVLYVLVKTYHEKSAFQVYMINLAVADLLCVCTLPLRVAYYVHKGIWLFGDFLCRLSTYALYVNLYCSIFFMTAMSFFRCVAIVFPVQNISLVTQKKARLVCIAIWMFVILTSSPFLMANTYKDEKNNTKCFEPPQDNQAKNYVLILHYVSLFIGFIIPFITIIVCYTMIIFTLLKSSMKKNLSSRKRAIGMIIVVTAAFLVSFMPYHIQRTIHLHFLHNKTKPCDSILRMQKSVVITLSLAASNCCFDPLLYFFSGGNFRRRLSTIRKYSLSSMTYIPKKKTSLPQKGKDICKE
Briefly: Leukotriene Receptor Binding Assay (LTD4 receptor binding, guinea pig lung membrane). To be noted: LTD4 binding to guinea pig lung membrane receptors; read-out: LTD4 antagonism: Receptor Binding Assay (IC50). The procedure: Leukotriene Receptor Binding Assay
The in vitro LTD4 receptor binding assay is carried out as follows:
Specific binding of titrated LTD4 to a fixed number of guinea pig lung receptors, isolated from guinea pig lung membrane, is measured in the presence and absence of test compound. The initial screening dose (1×10^-5 M) is considered active if the specific binding of the LTD4 is reduced by 45% or more. Active compounds are tested in a dose-response manner to determine IC50 values.

In test [2] the target is T2, guinea pig ileum (LTD4-induced contraction) (Cavia porcellus, UniProt Q2NNR5).
T2 construct: Fresh segments of guinea pig ileum; from tissue; host or cells: guinea pig ileum segments
T2 sequence (Q2NNR5 1-340): T1 sequence (Q2NNR5 1-340)
Briefly: LTD4 Antagonism in Guinea Pig Ileum. To be noted: pA2, negative log of antagonist concentration required to produce a dose-ratio of 2. The class given is cell-based. As for the experimental part: LTD4 Antagonism in Guinea Pig Ileum
Fresh segments of guinea pig ileum were suspended in 2 ml. tissue baths containing oxygenated modified Tyrodes solution. After an equilibration period, an agonist dose-response curve was generated by exposing each tissue to 4 different LTD4 doses and measuring the ensuing contractile heights. The ileum segments were washed and rested between exposures to agonist. Following this, the tissues were incubated with a single concentration of test compound and the agonist dose-response procedure was repeated. The dose ratio is a measure of the antagonist's ability to shift the agonist dose-response curve to the right. It is derived as the concentration of agonist necessary to reach a given response level in the presence (A') versus the absence (A) of antagonist. For example, if the test concentration of compound had no effect on the agonist-induced response (A'=A) the dose-ratio would approximate 1. […] One dose-ratio value is determined for each strip of ileum used to test antagonist. […] Schild analysis examines the linearity of the function described by the dose-ratios written as log [(A'/A)-1] versus antagonist concentration. If the linearity is […] and the slope approximates 1, inhibition is considered to be competitive. The pA2 is the negative log of the antagonist concentration required to produce a dose-ratio of 2. […]

Test [3] deals with LTD4-induced bronchoconstriction. Briefly: In Vivo Bronchoconstriction Assay (LTD4-induced intratracheal insufflation pressure increase). On the set-up: species or system guinea pig (Hartly). To be noted: guinea pig, 2000 units of LTD4 IV. The procedure:
The compounds are tested in vivo as follows. Adult male fasted Hartly guinea pigs weighing 300-350 g are pretreated with pyrilamine and indomethacin to block the bronchoconstricture effects of endogenous histamine and the synthesis of thromboxane A2 respectively. Compounds of the invention are administered IV or IG at appropriate times prior to the IV administration of 2000 units of LTD4. Intratracheal pressure is monitored prior to and subsequent to LTD4 in animals anesthetized with pentobarbital and attached to a rodent respirator. Compounds which antagonize the direct component of LTD4 action on respiratory smooth muscle inhibit intratracheal insufflation pressure increases (P< or =0.05) caused by LTD4. FPL 55712 is used as a control.

Test [4] deals with T3, LTB4 receptor (Homo sapiens, UniProt Q15722).
T3 construct: Neutrophils are purified from venous blood of normal human donors; endogenous in cells; host or cells: human neutrophils from venous blood
The test can be described thus: LTB4 Receptor Binding Assay (human neutrophils). To be noted: 0.6 nano M (3H) LTB4, 0° C., 45 minutes, read-out: LTB4 antagonism: Receptor Binding Assay (IC50). The procedure:
(§1) Preparation of Human Neutrophils
(§2) Neutrophils are purified from venous blood of normal human donors using standard techniques of dextran sedimentation, centrifugation on Histopaque sterile solution (Sigma) and hypotonic lysis of erythrocytes (Boyum, A., Isolation of Leukocytes From Human Blood: Further Observations. Scand. J. Lab. Clin. Invest. 21 (Suppl. 97): 31, 1968). The purity of isolated neutrophils was ≥95%.
LTB4 Receptor Binding Assay
Neutrophils (4-6×10^6) in 1 ml Hanks' balanced salt solution containing 10 mM HEPES buffer (HBSS), pH 7.4 and […] nordihydroguaiaretic acid were incubated with 0.6 nano M (^3 H) LTB4 in the presence or absence of test compounds. The incubation was carried out at 0° C. for 45 minutes and terminated by adding 5 ml of ice-cold HBSS followed by rapid filtration of incubation mixture under vacuum through GF/C glass fiber filters. The filters were further washed with 10 ml HBSS and radioactivity was determined. […] All data refer to specific binding.

Test [5] deals with human neutrophils (myeloperoxidase release). The test can be described thus: Human Neutrophil Degranulation Assay. The class given is cell-based. To be noted: table head LTB4 antagonism (method: LTB4 5×10^-8 M or f-met-leu-phe 5×10^-6 M). As for the experimental part:
as §1, §2
Human Neutrophil Degranulation Assay
Neutrophil degranulation was determined by measuring the release of myeloperoxidase activity into the incubation medium. Neutrophils (3×10^6) in 1 ml HBSS solution were preincubated with cytochalasin B(5μg) at 37° C. for 5 minutes, followed by preincubation with test compounds for 7 minutes. […] The supernatants and the pellet-extracts were then assayed spectrophotometrically for myeloperoxidase activity by determining the rate of decomposition of H2 O2 with o-dianisidine as hydrogen donor as described by Renlund, et al. (Renlund, D. G., MacFarlane, J. L., Christensen, R. D., Lynch, R. E., and Rothstein, G., A Quantitive And Sensitive Method for Measurement of Myeloperoxidase, Clinical Research 28:75A, 1980). Myeloperoxidase activity released into the supernatant was expressed as the percent of the average total activity (pellet plus supernatant).

The subject of test [6] is LTB4-induced dermal neutrophil chemotaxis (MPO activity). Briefly: Guinea Pig LTB4-Induced Dermal Chemotaxis. Format: in vivo. To be noted: Cavia porcellus, method: 35 ng LTB4 intradermal, compound IV or IG, MPO at 4 hours, read-out: LTB4 antagonism: Guinea Pig LTB4 Induced Dermal Chemotaxis (IC50). As for the experimental part:
Guinea Pig LTB4 -Induced Dermal Chemotaxis
Test compound was administered intravenously or intragastrically at various times prior to the injection of leukotriene B4 (LTB4). LTB4 was diluted in phosphate buffered saline (PBS) and 35 ng in 0.2 ml were injected intradermally into the shaven backs of anesthetized guinea pigs. PBS was injected as control. Four hours later, animals were sacrificed, skins removed and stored frozen (-70° C.). Injection sites were removed with a skin punch and mechanically homogenized (Polytron, Brinkmann Instruments). Myeloperoxidase (MPO), a marker enzyme for neutrophils, was extracted by 0.5% hexadecyltrimethylammonium bromide in 50 mM potassium phosphate buffer (pH 6.0), using sonication and freeze-thaw procedures. After centrifugation (40,000×g, 30 minutes), enzyme activities in the supernatants were assayed spectrophotometrically (A460) by measuring the decomposition of hydrogen peroxide with ortho-dianisidine after 15 minutes. […] In guinea pigs the level of MPO activity increased with the amount of LTB4 injected.

T3 sequence (Q15722 whole entry): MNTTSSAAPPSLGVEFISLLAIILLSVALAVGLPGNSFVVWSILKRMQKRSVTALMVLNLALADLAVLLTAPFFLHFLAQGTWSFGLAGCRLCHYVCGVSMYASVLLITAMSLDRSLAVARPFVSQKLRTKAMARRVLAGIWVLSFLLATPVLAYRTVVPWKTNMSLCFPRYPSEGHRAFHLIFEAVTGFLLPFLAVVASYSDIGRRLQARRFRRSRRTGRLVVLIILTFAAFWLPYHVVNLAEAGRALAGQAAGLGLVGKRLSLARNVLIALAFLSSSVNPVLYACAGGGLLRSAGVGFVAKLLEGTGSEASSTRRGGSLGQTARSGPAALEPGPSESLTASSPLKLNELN

In the case of `CCCc1c(OCCCSCC2COC3(CCC(CC(=O)O)C3)S2)ccc(C(C)=O)c1O` (stereo not drawn) [Example 2, 3-[[[3-(4-acetyl-3-hydroxy-2-propylphenoxy)propyl]thio]methyl]-1-oxa-4-thiaspiro[4.4]nonane-7-acetic acid], the half-inhibitory concentration (IC50) (usually the concentration needed to halve the response being measured) in test [1] was determined as 6.15 µM; in test [4], 0.8 µM; in test [5], 7.3 µM; in test [6] it was 8.3 µM. Moreover, the Kb (as a rule, the affinity of an antagonist, worked out from how it opposes an agonist) in test [2] was 0.0457 µM. Moreover, the “LTD4 antagonism: In Vivo Bronchoconstriction Assay (% Inhibition at 5 mpk. IV)” value in test [3] is on record as 94.7%.
